Reference: PubChem BioAssay AID248 (DTP/NCI, 2004)
Several values for one entry are separate records, joined by “and”; a condition that tells them apart may be missing. Equal entries are not always repeated. Inconclusive results and toxic doses are left out. No stated cut-off is given here; in the data, active means T/C of 150% or more; inactive means T/C below 125%.

Tested on: L1210 leukemia ip in BDF1 mice, survival T/C
Assay: NCI In Vivo Anticancer Drug Screen. Data for tumor model L1210 Leukemia (intraperitoneal) in B6D2F1 (BDF1) mice
Conditions: endpoint: mean survival time, higher = longer survival
Method in brief: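 Tumor was transplanted into mice, which were then dosed with test compound or vehicle alone. Survival was recorded for each group, and the treated figure was expressed relative to the control figure.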

[1] = dose: 100.0 mg/kg/injection, schedule: Q01DX009 (ip), vehicle: saline with Tween-80
[2] = dose: 200.0 mg/kg/injection, schedule: Q01DX009 (ip), vehicle: saline with Tween-80
[3] = dose: 400.0 mg/kg/injection, schedule: Q01DX009 (ip), vehicle: saline with Tween-80
[4] = dose: 25.0 mg/kg/injection, schedule: Q01DX009 (ip), vehicle: Klucel (hydroxypropylcellulose) (HPC)
[5] = dose: 50.0 mg/kg/injection, schedule: Q01DX009 (ip), vehicle: Klucel (hydroxypropylcellulose) (HPC)
[6] = dose: 100.0 mg/kg/injection, schedule: Q01DX009 (ip), vehicle: Klucel (hydroxypropylcellulose) (HPC)
[7] = dose: 100.0 mg/kg/injection, schedule: Q04DX003 (ip), vehicle: saline
[8] = dose: 200.0 mg/kg/injection, schedule: Q04DX003 (ip), vehicle: saline
[9] = dose: 400.0 mg/kg/injection, schedule: Q04DX003 (ip), vehicle: saline
[10] = dose: 50.0 mg/kg/injection, schedule: Q01DX009 (ip), vehicle: saline
[11] = dose: 100.0 mg/kg/injection, schedule: Q01DX009 (ip), vehicle: saline
[12] = dose: 100.0 mg/kg/injection, schedule: Q04DX002 (ip), vehicle: Klucel (hydroxypropylcellulose) (HPC)
[13] = dose: 200.0 mg/kg/injection, schedule: Q04DX002 (ip), vehicle: Klucel (hydroxypropylcellulose) (HPC)
[14] = dose: 400.0 mg/kg/injection, schedule: Q04DX002 (ip), vehicle: Klucel (hydroxypropylcellulose) (HPC)
[15] = dose: 200.0 mg/kg/injection, schedule: Q01DX009 (ip), vehicle: Klucel (hydroxypropylcellulose) (HPC)
[16] = dose: 400.0 mg/kg/injection, schedule: Q01DX009 (ip), vehicle: Klucel (hydroxypropylcellulose) (HPC)

Measured: T/C

CC(C)/C=C/C1(C(C)C)C(=O)NC(=S)NC1=O
inactive: dose: 75.0 mg/kg/injection, schedule: Q01DX001 (ip), vehicle: saline 95 % of control | dose: 150.0 mg/kg/injection, schedule: Q01DX001 (ip), vehicle: saline 100 % of control | dose: 300.0 mg/kg/injection, schedule: Q01DX001 (ip), vehicle: saline 98 % of control

CCC(C)(S(=O)(=O)CC)S(=O)(=O)CC
inactive: [1] 105 % of control | [2] 102 % of control | [3] 100 % of control

N=C(N(O)C(=O)Nc1ccccc1)C(Cl)(Cl)Cl
inactive: [4] 98 % of control | [5] 100 % of control | [6] 104 % of control and 105 % of control

CCOC(=O)Sc1ccccc1
inactive: dose: 100.0 mg/kg/injection, schedule: Q01DX001 (ip), vehicle: other 102 % of control | dose: 200.0 mg/kg/injection, schedule: Q01DX001 (ip), vehicle: other 94 % of control

O=c1oc2cccc(O)c2c(O)c1Cc1ccccc1
inactive: [7] 97 % of control | [8] 94 % of control | [9] 94 % of control

O=C(OCCN1CCCC1)C(c1ccccc1)C1(O)CCCC1 (stereo not given)
inactive: dose: 25.0 mg/kg/injection, schedule: Q01DX009 (ip), vehicle: saline 103 % of control | dose: 25.0 mg/kg/injection, schedule: Q04DX003 (ip), vehicle: saline 104 % of control | [10] 102 % of control | dose: 50.0 mg/kg/injection, schedule: Q04DX003 (ip), vehicle: saline 101 % of control | [11] 117 % of control | [7] 96 % of control and 97 % of control

COc1cc2c(c3oc4c(c(=O)c13)CCCC4)CCC(C)(C)O2
inactive: [7] 91 % of control | [8] 94 % of control | [9] 94 % of control

CC(C)NNCCO
inactive: [10] 98 % of control | [11] 103 % of control | [7] 89 % of control | [8] 95 % of control

Cn1c2c(c(=O)n(C)c1=O)CCC(=O)N2
inactive: [12] 106 % of control | [13] 98 % of control | [14] 92 % of control

CC(=O)c1c(O)cc(O)cc1O
inactive: [1] 96 % of control | [2] 91 % of control | [3] 98 % of control

Cc1cc[n+]([O-])cc1C
inactive: [6] 101 % of control | [12] 98 % of control | [15] 96 % of control | [13] 101 % of control

CCOC(=O)CSCc1cc(=O)[nH]c(=O)[nH]1
inactive: [7] 96 % of control | [8] 98 % of control | [9] 102 % of control

CC(=O)N(Cc1ccccc1)C1C(OCc2ccccc2)OC(CO)C(O)C1OCc1ccccc1 (stereo not given)
inactive: dose: 100.0 mg/kg/injection, schedule: Q01DX001 (ip), vehicle: saline with Tween-80 89 % of control | dose: 200.0 mg/kg/injection, schedule: Q01DX001 (ip), vehicle: saline with Tween-80 96 % of control | dose: 400.0 mg/kg/injection, schedule: Q01DX001 (ip), vehicle: saline with Tween-80 100 % of control

CCOC(=O)COc1cc(Cl)ccn1
inactive: [12] 110 % of control | [13] 104 % of control | [14] 104 % of control

CC(NC(=O)OCc1ccccc1)C(=O)NC(Cc1ccccc1)C(=O)OCc1ccccc1 (stereo not given)
inactive: dose: 100.0 mg/kg/injection, schedule: Q04DX003 (ip), vehicle: saline with Tween-80 95 % of control | dose: 400.0 mg/kg/injection, schedule: Q04DX003 (ip), vehicle: saline with Tween-80 91 % of control

CCCC(=O)Nc1cc([N+](=O)[O-])ccc1OC
inactive: [6] 104 % of control | [15] 104 % of control | [16] 98 % of control

O=C(NO)c1ccccc1.O=C(NO)c1ccccc1.O=C(NO)c1ccccc1.[Fe]
inactive: dose: 100.0 mg/kg/injection, schedule: Q04DX003 (ip), vehicle: DMSO 93 % of control

CN1C2CCC1CNC2
inactive: [11] 101 % of control | dose: 200.0 mg/kg/injection, schedule: Q01DX009 (ip), vehicle: saline 96 % of control | dose: 400.0 mg/kg/injection, schedule: Q01DX009 (ip), vehicle: saline 90 % of control

O=C(O)COc1ccc(Br)cn1
inactive: [12] 104 % of control | [13] 101 % of control | [14] 104 % of control

c1ccc(-c2cc3c(-c4ccccc4)c4ccccc4c(-c4ccccc4)c3cc2-c2ccccc2)cc1
inactive: dose: 50.0 mg/kg/injection, schedule: Q01DX009 (ip), vehicle: saline with Tween-80 96 % of control | [1] 96 % of control | [2] 108 % of control

CN(C)CCCN1CCCCC1
inactive: dose: 50.0 mg/kg/injection, schedule: Q01DX001 (ip), vehicle: saline 106 % of control | dose: 100.0 mg/kg/injection, schedule: Q01DX001 (ip), vehicle: saline 115 % of control | dose: 200.0 mg/kg/injection, schedule: Q01DX001 (ip), vehicle: saline 110 % of control | dose: 400.0 mg/kg/injection, schedule: Q01DX001 (ip), vehicle: saline 104 % of control

CC12CCC(/C(=N/O)C1=O)C2(C)C (stereo not given)
inactive: [12] 106 % of control | [13] 110 % of control | [14] 103 % of control

O=C(SCC(NSc1ccccc1[N+](=O)[O-])C(=O)O)c1ccccc1 (stereo not given)
inactive: dose: 12.0 mg/kg/injection, schedule: Q04DX003 (ip), vehicle: Klucel (hydroxypropylcellulose) (HPC) 90 % of control | [4] 95 % of control | dose: 25.0 mg/kg/injection, schedule: Q04DX003 (ip), vehicle: Klucel (hydroxypropylcellulose) (HPC) 95 % of control | [5] 98 % of control | dose: 50.0 mg/kg/injection, schedule: Q04DX003 (ip), vehicle: Klucel (hydroxypropylcellulose) (HPC) 95 % of control | [6] 98 % of control

CC(C)=CCCC(C)CCOc1ccc(C(C)C)cc1 (stereo not given)
inactive: dose: 100.0 mg/kg/injection, schedule: Q04DX002 (ip), vehicle: saline with Tween-80 108 % of control | dose: 200.0 mg/kg/injection, schedule: Q04DX002 (ip), vehicle: saline with Tween-80 96 % of control | dose: 400.0 mg/kg/injection, schedule: Q04DX002 (ip), vehicle: saline with Tween-80 103 % of control

CCNC(=S)C(=S)NCC
inactive: dose: 3.0 mg/kg/injection, schedule: Q01DX009 (ip), vehicle: Klucel (hydroxypropylcellulose) (HPC) 92 % of control | dose: 3.12 mg/kg/injection, schedule: Q04DX003 (ip), vehicle: Klucel (hydroxypropylcellulose) (HPC) 100 % of control | dose: 6.0 mg/kg/injection, schedule: Q01DX009 (ip), vehicle: Klucel (hydroxypropylcellulose) (HPC) 97 % of control | dose: 6.25 mg/kg/injection, schedule: Q04DX003 (ip), vehicle: Klucel (hydroxypropylcellulose) (HPC) 104 % of control | dose: 12.5 mg/kg/injection, schedule: Q04DX003 (ip), vehicle: Klucel (hydroxypropylcellulose) (HPC) 98 % of control and 106 % of control

CCCC(=O)N1CCCCC1
inactive: [12] 88 % of control

CCOC(=O)CNC(=O)C(=[N+]=[N-])C(=O)COc1ccc(F)cc1
inactive: dose: 50.0 mg/kg/injection, schedule: Q01DX001 (ip), vehicle: carboxymethylcellulose (CMC) 104 % of control | dose: 100.0 mg/kg/injection, schedule: Q01DX001 (ip), vehicle: carboxymethylcellulose (CMC) 95 % of control | dose: 200.0 mg/kg/injection, schedule: Q01DX001 (ip), vehicle: carboxymethylcellulose (CMC) 101 % of control | dose: 400.0 mg/kg/injection, schedule: Q01DX001 (ip), vehicle: carboxymethylcellulose (CMC) 90 % of control

COc1ccccc1C(=O)N/N=C/c1ccc(O)cc1
inactive: [6] 101 % of control | [15] 97 % of control | [16] 94 % of control
